Each structure is given as a SMILES string. Where only a bound is given, the exact number is not on record here.

For one series, the target named is T1, caspase 7 (Homo sapiens, UniProt P55210).
T1 construct: purchased Biomol International, UK
T1 sequence (P55210 24-198 limits assumed): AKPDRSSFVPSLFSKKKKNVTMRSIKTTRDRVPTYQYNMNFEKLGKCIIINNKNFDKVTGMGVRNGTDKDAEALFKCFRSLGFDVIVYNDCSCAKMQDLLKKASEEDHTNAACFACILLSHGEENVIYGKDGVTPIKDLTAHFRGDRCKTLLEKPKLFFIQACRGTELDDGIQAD
T1 sequence (P55210 207-303 limits assumed): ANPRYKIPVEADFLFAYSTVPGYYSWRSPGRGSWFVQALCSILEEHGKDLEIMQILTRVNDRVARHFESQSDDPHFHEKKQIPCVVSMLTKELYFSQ
Briefly: Fluorimetric in vitro caspase inhibition assay (7-AMC), caspase 7. The series is classed as biochemical. The settings on record: recombinant human caspase 7, 10 μM Ac-DEVD-AMC. Here is the method: (§1) Recombinant human caspases-1, -3, -6, -7, and -8 and their peptide-specific substrates were purchased from Biomol International, UK Inhibition of the recombinant caspases by non-radioactive isatins was assessed using a fluorometric assay that measures the accumulation of a fluorogenic product, 7-amino-4-methylcoumarin (7-AMC). All assays were performed in 96-well plates at a volume of 200 μl per well. The assays were performed at 37° C. in an appropriate reaction buffer as described below for each caspase. For caspase 1, the buffer comprised of 0.1% CHAPS, 100 mM NaCl, 5 mM 2-mercaptoethanol, 100 mM HEPES (pH 7.4), 2 mM EDTA, 10% sucrose, and 10 μM of the peptide substrate Ac-YVAD-AMC. For caspase 3: 20 mM HEPES (pH 7.4), 10% sucrose, 100 mM NaCl, 0.1% CHAPS, 2 m, mM EDTA, and 10 μM Ac-DEVD-AMC. For caspase 6: 20 mM HEPES (pH 7.4), 10% sucrose, 100 mM NaCl, 0.1% CHAPS, 2 mM EDTA, and 10 μM Ac-VEID-AMC. For caspase 7: 20 mM HEPES (pH 7.4), 10% sucrose, 5 mM 2-mercaptoethanol, 100 mM NaCl, 0.1% CHAPS, 2 mM EDTA, 10 μM Ac-DEVD-AMC. For caspase 8: 20 mM HEPES (pH 7.4), 10% sucrose, 100 mM NaCl, 0.1% CHAPS, 2 mM EDTA, and 10 μM Ac-IETD-AMC. The Buffers contained non-radioactive isatins in DMSO at a final concentration of 500, 50, 5 μM; 500, 50, 5 nM; 500, 50, 5 pM; the final concentration of DMSO in all wells was 5% of the total volume. Recombinant caspases were used at 0.5 units per assay (˜500 pmol substrate converted per h). All reagents except the peptide substrate were pre-incubated for 10 min. The peptide substrate (final concentration 10 μM) was then added and the plate was incubated for a further 30 min; 30 min was selected after initial linearity study where reaction was assessed after 10, 30, 60 or 90 min. The 30 min time point was selected. Respective control wells contained all reaction components without enzyme. The amount of 7-AMC produced was measured on a fluorescence microplate reader (Victor2; Perkin-Elmer Life sciences) at excitation and emission wavelengths of 355 nm and 460 nm, respectively. The concentration of isatin that inhibits the caspase activity by 50% (EC50) was estimated by non-linear regression analysis using GraphPad Prism (Version 4.0 for Windows, GraphPad Software, San Diego Calif. USA). All the isatins were analyzed in duplicate; the assays were repeated once. Known compounds 13-16 were included as reference compounds.
(§2) The data are the average for two runs, each of which was duplicated, at nine concentrations ranging from 5 pM to 500 μM; the drug concentration required to inhibit each enzyme by 50% (EC50) was obtained from nonlinear regression analysis of the inhibition profiles.

The target of the next series is T2, caspase 1 (Homo sapiens, UniProt P29466).
T2 construct: purchased Biomol International, UK
T2 sequence (P29466 120-297 limits assumed): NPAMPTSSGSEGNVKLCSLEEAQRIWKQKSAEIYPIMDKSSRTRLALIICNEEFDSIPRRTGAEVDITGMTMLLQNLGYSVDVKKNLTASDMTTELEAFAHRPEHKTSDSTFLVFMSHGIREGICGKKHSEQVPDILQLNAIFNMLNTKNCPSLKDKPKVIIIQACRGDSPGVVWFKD
T2 sequence (P29466 317-404 limits assumed): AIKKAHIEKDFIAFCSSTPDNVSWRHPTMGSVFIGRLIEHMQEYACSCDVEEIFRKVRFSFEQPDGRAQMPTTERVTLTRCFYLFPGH
Briefly: Fluorimetric in vitro caspase inhibition assay (7-AMC), caspase 1. The series is classed as biochemical. The settings on record: recombinant human caspase 1, 10 μM Ac-YVAD-AMC; read-out: Caspase EC50 (nM), 1/6/8: caspase 1. The procedure:
as §1, §2

The target of a further series is T3, caspase 6 (Homo sapiens, UniProt P55212).
T3 construct: purchased Biomol International, UK
T3 sequence (P55212 24-179 limits assumed): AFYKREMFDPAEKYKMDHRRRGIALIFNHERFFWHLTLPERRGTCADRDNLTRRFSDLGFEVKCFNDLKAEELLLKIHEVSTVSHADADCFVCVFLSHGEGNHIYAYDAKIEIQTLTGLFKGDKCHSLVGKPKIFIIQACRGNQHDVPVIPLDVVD
T3 sequence (P55212 194-293 limits assumed): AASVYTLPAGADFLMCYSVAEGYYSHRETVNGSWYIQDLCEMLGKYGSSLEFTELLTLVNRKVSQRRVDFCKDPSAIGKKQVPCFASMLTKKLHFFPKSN
Briefly: Fluorimetric in vitro caspase inhibition assay (7-AMC), caspase 6. The series is classed as biochemical. The settings on record: recombinant human caspase 6, 10 μM Ac-VEID-AMC; read-out: Caspase EC50 (nM), 1/6/8: caspase 6. The procedure:
as §1, §2

The next series deals with T4, caspase 8 (Homo sapiens, UniProt Q14790).
T4 construct: purchased Biomol International, UK
Briefly: Fluorimetric in vitro caspase inhibition assay (7-AMC), caspase 8. It is filed as biochemical. The settings on record: recombinant human caspase 8, 10 μM Ac-IETD-AMC; read-out: Caspase EC50 (nM), 1/6/8: caspase 8. Here is the method:
as §1, §2

The test system of the next series is 38C13 lymphoma cells. Briefly: Binding in 38C13 lymphoma cells undergoing treatment-induced apoptosis. The series is classed as cell-based, murine. The settings on record: 38C13 cells, 4-HC 1 μg/mL 24 h. Here is the method: (left panel). Chemical structure and [^18F]11 binding in 38C13 lymphoma cells treated with 4-hydroperoxycyclophosphamide 4-HC (4-HC; 1 μg/mL; 24 h) to induce apoptosis. For all treated and control samples, radioactivity data were expressed as decay-corrected counts per milligram of total cellular protein. (right panel) The effect of 4-HC on the binding of the low affinity probe, [^18F]42, in 38C13 lymphoma cells. Data are mean±s.e.m.
A further aspect of the project has involved analysis of the weak isatin caspase-3 inhibitor N-[1-(2-Fluoroethyl)-1H-[1,2,3]-triazol-4-yl]isatin (compound 42). […] However, [^18F]42 lacks the pyrrolidine sulphonamide functionality that confers high affinity and selectivity for caspase-3. [^18F]42 was investigated in cell uptake assays for direct comparison with [^18F]11. The purpose of this was to examine the uptake profiles of the compounds in an effort to determine if uptake was the result of increased cell permeability, a characteristic trait of apoptotic cells, or the result of caspase-3 binding. Unlike [^18F]11, there was no increase in [^18F]42 binding following drug treatment (see FIG. 26), supporting the notion that [^18F]11 binding is due to caspase 3 activation.

Series [1] is described as follows: In vivo metabolism studies, radio-HPLC of plasma, liver and urine. Also on record: species or system C3H/hej mice. Here is the method:
[^18F]11 was injected intravenously into tumor-bearing mice and its tissue distribution was measured in selected tissues at 2, 15 and 60 min after injection. […] Furthermore, the in vivo metabolic stability of the radiotracer was determined from plasma and liver samples and, for [^18F]11, in urine samples.
In vivo metabolism studies were also performed in C3H/hej mice. […] Plasma, liver and urine samples were snap-frozen in liquid nitrogen and kept in pre-weighed scintillation counting tubes on dry ice prior to analysis.
Immediately prior to extraction the samples were thawed and placed on ice. For extraction, ice cold acetonitrile (1.5 mL) was added to plasma (0.2 mL); S9 incubation samples (3 mL) containing acetonitrile were also analysed. Each mixture was centrifuged (15493×g, 4° C., 3 min) and the resulting supernatant was evaporated to dryness under vacuum at 40° C. using a rotary evaporator. Liver samples were homogenized with ice cold acetonitrile (1.5 mL) using an IKA Ultra-Turrax T-25 homogeniser prior to centrifugation. The residues were then re-suspended in HPLC mobile phase (1.2 mL) and filtered through a Minisart hydrophilic syringe filter (0.2 μm) (Sartorius, Goettingen, Germany). Urine samples were diluted with HPLC mobile phase, filtered as above. The samples (1 mL) were then analyzed by radio-HPLC on an Agilent 1100 series HPLC system (Agilent Technologies, Stockport, UK) equipped with a γ-RAM Model 3 gamma-detector and the Laura software (IN/US Systems inc., Florida, USA).
The stationary phase comprised of a Waters μBondapak C18 reverse-phase column (300×7.8 mm). […] Furthermore, to assess the fraction of [^18F]9-derived radioactivity associated with the plasma and liver pellets after extraction versus that remaining in the HPLC injectate, the total volume of HPLC injectate was recorded and an aliquot (0.1 mL) removed for counting. The radioactivity in the 0.1 mL aliquot and the pellet were then analyzed by gamma counting (Packard Instruments).

Series [2] can be described thus: In vivo biodistribution studies (Example 5). Also on record: species or system C3H/hej mice. The settings on record: mice, i.v., 2-60 min. Here is the method:
The stability of novel compound [^18F]11 and known compound [^125I]14 in plasma and liver was measured over time following administration in mice. [^18F]11 was injected intravenously into tumor-bearing mice and its tissue distribution was measured in selected tissues at 2, 15 and 60 min after injection. [^125I]14 was injected intravenously into non-tumour bearing mice and its tissue distribution was measured at selected time points from 2 to 60 minutes after injection. Furthermore, the in vivo metabolic stability of the radiotracer was determined from plasma and liver samples and, for [^18F]11, in urine samples.
The radiation-induced murine fibrosarcoma (RIF-1) tumour cells^20 were maintained in RPMI 1640 medium (Invitrogen Ltd, Paisley, UK) supplemented with 10% fetal calf serum (BioWhittaker Europe Ltd, Verviers, Belgium), 2 mM L-glutamine, 100 U/mL penicillin, 100 μg/mL streptomycin and 0.25 μg/mL fungizone (Gibco, UK) at 37° C. in a humidified incubator with 5% CO2. All animal work was done by licensed investigators in accordance with the United Kingdom's “Guidance on the Operation of Animals (Scientific Procedures) Act 1986” (HMSO, London, United Kingdom, 1990) and in full compliance with government regulations and guidelines on the welfare of animals in experimental neoplasia^21. Tumors were established in mice by subcutaneous injection of 5×10^5 cells on the back of male C3H/hej mice (Harlan, Bicester, Oxfordshire, UK). Tumour growth was monitored every two days using electronic callipers, and tumor volume estimated using the equation (π/6)×L×W×D (L=length, W=width and D=depth). Animals were selected for biodistribution studies of [^18F]11 when the tumors reached ˜100-150 mm^3; biodistribution of [^125I]14 was done in non-tumor-bearing mice.
Mice were injected intravenously via the lateral vein with 0.08-0.13 mL of radioactivity (˜0.37 MBq of [^125I]14 or 3.7 MBq of [^18F]11) dissolved in phosphate buffered saline. At selected times after injection (2-60 min) mice were sacrificed by exsanguination via cardiac puncture under general anesthesia (isofluorane inhalation). Aliquots of heparinised blood were rapidly centrifuged (2000 g for 5 minutes) to obtain plasma. The radioactivity contained in tissues was determined by gamma-counting on a Cobra II Auto-Gamma counter (Packard Instruments, Meriden, Conn., USA) and expressed as a percentage of injected dose per gram of tissue (% ID/g). A minimum of three mice was used for each time point. All animals were treatment-naïve.

T4 sequence (Q14790 217-374 limits assumed): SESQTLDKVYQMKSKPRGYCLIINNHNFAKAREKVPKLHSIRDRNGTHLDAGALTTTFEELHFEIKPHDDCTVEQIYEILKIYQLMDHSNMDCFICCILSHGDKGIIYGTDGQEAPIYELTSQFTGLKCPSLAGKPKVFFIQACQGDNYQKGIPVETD
T4 sequence (Q14790 385-479 limits assumed): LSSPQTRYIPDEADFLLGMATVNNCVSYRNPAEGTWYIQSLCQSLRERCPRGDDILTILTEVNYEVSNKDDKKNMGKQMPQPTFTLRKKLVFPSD

With `O=C1C(=O)N(Cc2ccc(F)cc2)c2ccc(S(=O)(=O)N3CCC[C@H]3COc3cc(F)cc(F)c3)cc21` [Compound 3, (S)-1-(4-Fluorobenzyl)-5-(2-(3,5-difluorophenoxymethyl)-pyrrolidine-1-sulfonyl)isatin], the EC50 is 16.8 nM at caspase 7, > 5000 nM on caspase 1, > 5000 nM on caspase 6 and > 5000 nM at caspase 8.

In the case of `O=C1C(=O)N(c2cn(CCF)nn2)c2ccccc21` [[^18F]42, N-[1-(2-Fluoroethyl)-1H-[1,2,3]-triazol-4-yl]isatin], the “binding following drug treatment” value in the series with 38C13 lymphoma cells was “no increase”.

For `O=C1C(=O)N(Cc2ccc(I)cc2)c2ccc(S(=O)(=O)N3CCC[C@H]3COc3ccccc3)cc21` [[^125I]14, (S)-1-(4-iodobenzyl)-5-(2-phenoxymethyl-pyrrolidine-1-sulfonyl)isatin, reference compound], in series [1] (10 min after injection, n=3), the “parent as share of the radioactivity detected in the liver” value is given as < 15%. The “time until parent fully metabolized in the liver” value in series [1] (mice, after injection) is ≤ 30 min. The “time to complete elimination of parent from plasma” value in series [1] (mice, i.v.) is on record as ≤ 10 min. The “tissue distribution and elimination” value in series [2] is “distributed rapidly to the major organs and was also rapidly eliminated”.

Values taken from patent US8961930B2, “Isatin derivatives for use as in vivo imaging agents” (Imperial Innovations Limited, priority 2008, dated 2015).
